{"source": "paper PMC2628307", "about": "(Journal of the American Chemical Society, 2008)", "key": {"PP1γ [1]": {"target": "T1, PP1γ (Homo sapiens, UniProt P36873)", "T1 sequence (P36873 whole entry)": "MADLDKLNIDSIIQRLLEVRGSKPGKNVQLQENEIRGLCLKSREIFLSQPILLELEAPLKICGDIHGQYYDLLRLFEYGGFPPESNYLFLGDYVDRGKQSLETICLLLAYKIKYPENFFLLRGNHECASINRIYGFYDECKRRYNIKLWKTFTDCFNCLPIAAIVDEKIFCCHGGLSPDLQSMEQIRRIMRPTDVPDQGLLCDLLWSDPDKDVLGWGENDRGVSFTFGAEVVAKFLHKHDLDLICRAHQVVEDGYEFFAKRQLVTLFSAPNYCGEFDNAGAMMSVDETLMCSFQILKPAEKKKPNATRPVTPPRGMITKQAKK", "assay_type": "biochemical", "settings": "for activity as PP1γ substrate: pH 8"}, "PP1 [2]": {"target": "PP1 (Homo sapiens, UniProt P36873)", "sequence (P36873 whole entry)": "as above", "experiment": "Kinetic isotope effects of PP1-catalyzed hydrolysis", "assay_type": "biochemical", "settings": "25 °C, pH 7.0"}, "[3]": {"settings": "Dianion H2O attack, 95° C; cited from earlier work"}, "calcineurin": {"test_system": "calcineurin", "settings": "cited from earlier work"}, "[4]": {"settings": "25 °C; cited from earlier work"}, "[5]": {"test_system": "native PTPs YopH, VHR, and PTP1", "settings": "cited from earlier work"}, "PP1 H125A mutant": {"target": "PP1 H125A mutant (Homo sapiens, UniProt P36873, H125A)", "sequence (P36873 2-323 H125A)": "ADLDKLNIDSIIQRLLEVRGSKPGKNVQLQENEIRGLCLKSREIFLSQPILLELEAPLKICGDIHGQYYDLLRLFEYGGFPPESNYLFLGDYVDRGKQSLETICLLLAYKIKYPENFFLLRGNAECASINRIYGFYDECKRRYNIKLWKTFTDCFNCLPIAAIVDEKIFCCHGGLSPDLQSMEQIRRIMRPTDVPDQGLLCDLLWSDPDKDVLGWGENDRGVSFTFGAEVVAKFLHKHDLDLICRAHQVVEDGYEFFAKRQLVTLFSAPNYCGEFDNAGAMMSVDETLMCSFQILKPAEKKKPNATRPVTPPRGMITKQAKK", "experiment": "4NPP hydrolysis by PP1 H125A mutant", "assay_type": "biochemical"}, "PP1 [6]": {"target": "PP1", "settings": "tighter binding peptide substrate; cited from earlier work"}, "alkaline phosphatase": {"target": "alkaline phosphatase", "settings": "cited from earlier work"}, "PP1γ [7]": {"target": "T1, PP1γ"}}, "note": "“And” between values parts separate entries of the source, which are not always exact repeats. Equal values may be shown once. Where a name gives a salt, the structure may show the parent alone. Read-outs that look alike come from different tables or passages of the source."}
{"smiles": "O=[N+]([O-])c1ccc(O)cc1", "note": "[4-nitro, p-nitrophenol]", "values": [{"measurement": "pKa", "setting": "physchem", "result": 7.01}]}
{"smiles": "COP(=O)(O)Oc1ccc([N+](=O)[O-])cc1", "note": "[4-nitrophenyl methyl phosphate]", "values": [{"measurement": "activity as PP1γ substrate", "setting": "PP1γ [1]", "result": "significant activity"}]}
{"smiles": "O=[N+]([O-])c1ccc(OS(=O)(=O)O)cc1", "note": "[4-nitrophenyl sulfate]", "values": [{"measurement": "activity as PP1γ substrate", "setting": "PP1γ [1]", "result": "little activity"}]}
{"smiles": "O=[N+]([O-])c1ccc(OP(O)(O)=S)cc1", "note": "[4-nitrophenyl thiophosphate]", "values": [{"measurement": "activity as PP1γ substrate", "setting": "PP1γ [1]", "result": "little activity"}]}
{"smiles": "O=[N+]([O-])c1ccc(OP(=O)(O)O)cc1", "note": "[4NPP, 4-nitrophenyl phosphate]", "values": [{"measurement": "^18knonbridge", "setting": "PP1 [2]", "result": "0.9959 (4)"}, {"measurement": "^18knonbridge per atom", "setting": "PP1 [2]", "result": "0.9986 (4)"}, {"measurement": "change in rate of hydrolysis with viscosigens", "setting": "PP1γ [1]; 20% sucrose or glycerol", "result": "no changes"}, {"measurement": "^15k", "setting": "[3]", "result": "1.0028(2)"}, {"measurement": "^18knonbridge", "setting": "[3]", "result": "0.9994 (5)"}, {"measurement": "^18knonbridge per atom", "setting": "[3]", "result": "0.9998 (5)"}, {"measurement": "^18(V/K)nonbridge", "setting": "calcineurin; calcineurin with Mg^2+ at the active site", "result": 0.9910}, {"measurement": "^18(V/K)nonbridge", "setting": "calcineurin; calcineurin with Mn^+2 at the active site", "result": 0.9942}, {"measurement": "pseudo-first order rate constant of water reaction of the dianion", "setting": "[4]", "result": "2e-09", "unit": "s⁻¹"}, {"measurement": "^15k", "setting": "[5]", "result": "0.9999-1.0001"}, {"measurement": "^18knonbridge", "setting": "[5]", "result": "0.9998-1.0003 and 1.0118-1.0152"}, {"measurement": "^18knonbridge per atom", "setting": "[5]", "result": "0.9999-01.0001"}, {"measurement": "activity for 4NPP hydrolysis", "setting": "PP1 H125A mutant", "result": "no detectable activity"}]}
{"smiles": "O=P(O)(O)O", "note": "[inorganic phosphate]", "values": [{"measurement": "Ki", "setting": "PP1 [6]", "result": "1600 ± 900", "unit": "µM"}, {"measurement": "Ki", "setting": "alkaline phosphatase", "result": "~1", "unit": "µM"}, {"measurement": "Ki", "setting": "PP1γ [7]; pH 8, 4NPMP hydrolysis, compared with Ki for the 4NPP reaction", "result": "same Ki"}, {"measurement": "Ki", "setting": "PP1γ [7]; pH 8.0, 4NPP hydrolysis, competitive inhibition, equation 2", "result": "1200 ± 200", "unit": "µM"}]}
